Data: patent publication US4129737A, “Process for the preparation of an 8-alkyl-5-oxo-5,8-dihydro-pyrido(2,3-d)pyrimidine-6-carboxylic acid” (priority 1972, dated 1978)
Converted amounts (≈) assume the structure as drawn. Read-outs that look alike come from different tables or passages of the source.

What was measured:
Format in all cases: cell-based
[1] = test system: Esch. Coli 95; assay: Minimum inhibitory concentration by agar dilution, Esch. Coli 95; conditions: Escherichia coli
Experimental: (§1) (a) Trypticase soya medium (T.S.A.), which is very suitable for culturing the majority of microorganisms; it has the following composition:
(§2) (b) Ordinarily nutrient agar (N.A.), which is less rich in nutrients, corresponds to the following formulation: […]
(§3) Table I gives the minimum inhibitory concentrations (expressed in μg/cm^3) for the various microorganisms tested on each medium.
(§4) The products were tested on three Gram positive microorganisms (1 to 3) […] and on 10 Gram negative microorganisms (4 to 13).
(§5) Table (II) gives the minimum inhibitory concentrations of the compounds of Examples XII to XVI, determined on the agar medium, N.A., and expressed in μg/cm^3.

[2] = test system: B. subtilis; assay: Minimum inhibitory concentration by agar dilution, B. subtilis; conditions: Bacillus subtilis
Experimental: as §1, §2, §3, §4, §5

[3] = test system: Staphylococcus 209 P; assay: Minimum inhibitory concentration by agar dilution, Staphylococcus 209 P
Experimental: as §1, §2, §3, §4, §5

[4] = test system: Streptococcus; assay: Minimum inhibitory concentration by agar dilution, Streptococcus Group A
Experimental: as §1, §2, §3, §4, §5

[5] = test system: Bord. bronchiseptica; assay: Minimum inhibitory concentration by agar dilution, Bord. bronchiseptica; conditions: Bordetella bronchiseptica
Experimental: as §1, §2, §3, §4, §5

[6] = test system: B. pyocyaneus A22; assay: Minimum inhibitory concentration by agar dilution, B. pyocyaneus A22; conditions: Pseudomonas aeruginosa
Experimental: as §1, §2, §3, §4, §5

[7] = test system: Pr. vulgaris; assay: Minimum inhibitory concentration by agar dilution, Pr. vulgaris; conditions: Proteus vulgaris
Experimental: as §1, §2, §3, §4, §5

[8] = test system: Sh. sonnei; assay: Minimum inhibitory concentration by agar dilution, Sh. sonnei; conditions: Shigella sonnei
Experimental: as §1, §2, §3, §4, §5

[9] = test system: Gram-negative microorganisms; assay: In vitro anti-microbial activity on agar media, overall; conditions: in vitro
Experimental: as §4

[10] = test system: Pr. morganii; assay: Minimum inhibitory concentration by agar dilution, Pr. morganii; conditions: Morganella morganii
Experimental: as §1, §2, §3, §4, §5

[11] = test system: Pr. mirabilis; assay: Minimum inhibitory concentration by agar dilution, Pr. mirabilis; conditions: Proteus mirabilis
Experimental: as §1, §2, §3, §4, §5

[12] = test system: Klebs. pneumoniae; assay: Minimum inhibitory concentration by agar dilution, Klebs. pneumoniae; conditions: Klebsiella pneumoniae
Experimental: as §1, §2, §3, §4, §5

[13] = test system: B. pyocyaneus TUR; assay: Minimum inhibitory concentration by agar dilution, B. pyocyaneus TUR; conditions: Pseudomonas aeruginosa, 37° C., 18 hours
Experimental: as §1, §2, §3, §4

[14] = test system: Salm. typhi; assay: Minimum inhibitory concentration by agar dilution, Salm. typhi; conditions: Salmonella enterica, 18 h
Experimental: as §1, §2, §3, §4, §5

[15] = N.A. (nutrient agar, pH 6.8), 37° C., 18 hours, Table I, read-out: minimum inhibitory concentration (M.I.C.)
[16] = T.S.A. (trypticase soya medium, pH 7.3), 37° C., 18 hours, read-out: minimum inhibitory concentration (M.I.C.)
[17] = Staphylococcus, N.A. (nutrient agar, pH 6.8), 37° C., 18 hours, Table I, read-out: minimum inhibitory concentration (M.I.C.)
[18] = Staphylococcus, T.S.A. (trypticase soya medium, pH 7.3), 37° C., 18 hours, read-out: minimum inhibitory concentration (M.I.C.)
[19] = A22, N.A. (nutrient agar, pH 6.8), 37° C., 18 hours, Table I, read-out: minimum inhibitory concentration (M.I.C.)
[20] = A22, T.S.A. (trypticase soya medium, pH 7.3), 37° C., 18 hours, read-out: minimum inhibitory concentration (M.I.C.)
[21] = N.A. (nutrient agar, pH 6.8), Table I
[22] = T.S.A. (trypticase soya medium, pH 7.3), read-out: minimum inhibitory concentration (M.I.C.)
[23] = pH 6.8, read-out: minimum inhibitory concentration (M.I.C.)
[24] = pH 7.3, read-out: minimum inhibitory concentration (M.I.C.)
[25] = 18 h, pH 7.3, read-out: minimum inhibitory concentration (M.I.C.)
[26] = 18 h, pH 6.8, read-out: minimum inhibitory concentration (M.I.C.)
[27] = 18 h, agar medium, N.A., Table II, read-out: minimum inhibitory concentration

Question: Which results are given for CCn1cc(C(=O)O)c(=O)c2cnc(N3CCN(C)CC3)nc21 [Example V, 2-(4'-Methyl-piperazino)-5-oxo-8-ethyl-5,8-dihydro-pyrido(2,3-d)pyrimidine-6-carboxylic acid]?
Answer: MIC [1, 15]: 0.8 µg/mL (≈ 2.52 µM); MIC [1, 16]: 6.2 µg/mL (≈ 19.5 µM); MIC [2, 15]: 1.6 µg/mL (≈ 5.04 µM); MIC [2, 16]: 6.2 µg/mL (≈ 19.5 µM); MIC [3, 17]: 3.1 µg/mL (≈ 9.77 µM); MIC [3, 18]: 100 µg/mL (≈ 315 µM); MIC [4, 15]: 25 µg/mL (≈ 78.8 µM); MIC [4, 16]: 6.2 µg/mL (≈ 19.5 µM); MIC [5, 15]: 50 µg/mL (≈ 158 µM); MIC [5, 16]: 100 µg/mL (≈ 315 µM); MIC [6, 19]: 12.5 µg/mL (≈ 39.4 µM); MIC [6, 20]: 100 µg/mL (≈ 315 µM); MIC [7, 15]: 1.6 µg/mL (≈ 5.04 µM); MIC [7, 16]: 6.2 µg/mL (≈ 19.5 µM); MIC [8, 15]: 0.8 µg/mL (≈ 2.52 µM); MIC [8, 16]: 1.6 µg/mL (≈ 5.04 µM); activity against Gram-negative microorganisms [9]: particularly active against Gram-negative microorganisms; MIC [10, 15]: 0.8 µg/mL (≈ 2.52 µM); MIC [10, 16]: 1.6 µg/mL (≈ 5.04 µM); MIC [11, 15]: 6.2 µg/mL (≈ 19.5 µM); MIC [11, 16]: 6.2 µg/mL (≈ 19.5 µM); MIC [12, 15]: 0.4 µg/mL (≈ 1.26 µM); MIC [12, 16]: 6.2 µg/mL (≈ 19.5 µM); MIC [13, 21]: 50 µg/mL (≈ 158 µM); MIC [13, 22]: 100 µg/mL (≈ 315 µM); MIC [14, 23]: 3.1 µg/mL (≈ 9.77 µM); MIC [14, 24]: 3.1 µg/mL (≈ 9.77 µM)

Question: How did the MIC [1, 15] turn out when CCn1cc(C(=O)O)c(=O)c2cnc(N3CCN(CCO)CC3)nc21 [Example VI, 2-(4-β-Hydroxyethyl-piperazino)-5-oxo-8-ethyl-5,8-dihydropyrido(2,3-d)pyrimidine-6-carboxylic acid] was run?
Answer: 1.6 µg/mL (≈ 4.61 µM)

Question: What about the MIC [1, 16] of the same compound?
Answer: 3.1 µg/mL (≈ 8.92 µM)

Question: What about the MIC [2, 15] of the same compound?
Answer: 1.6 µg/mL (≈ 4.61 µM)

Question: What about the MIC [2, 16] of the same compound?
Answer: 3.1 µg/mL (≈ 8.92 µM)

Question: And the MIC ([3]; Staphylococcus, 18 h, pH 7.3, read-out: minimum inhibitory concentration (M.I.C.))?
Answer: 12.5 µg/mL (≈ 36 µM)

Question: What about the MIC [3, 17] of the same compound?
Answer: 3.1 µg/mL (≈ 8.92 µM)

Question: What about the MIC [4, 25] of the same compound?
Answer: 12.5 µg/mL (≈ 36 µM)

Question: What about the MIC [4, 15] of the same compound?
Answer: 3.1 µg/mL (≈ 8.92 µM)

Question: And the MIC [5, 15]?
Answer: 50 µg/mL (≈ 144 µM)

Question: And the MIC [5, 16]?
Answer: > 100 µg/mL

Question: What about the MIC [6, 19] of the same compound?
Answer: 50 µg/mL (≈ 144 µM)

Question: What about the MIC [6, 20] of the same compound?
Answer: > 100 µg/mL

Question: And the MIC [7, 15]?
Answer: 50 µg/mL (≈ 144 µM)

Question: And the MIC [7, 16]?
Answer: 6.2 µg/mL (≈ 17.8 µM)

Question: What about the MIC [8, 15] of the same compound?
Answer: 1.6 µg/mL (≈ 4.61 µM)

Question: And the MIC [8, 16]?
Answer: 1.6 µg/mL (≈ 4.61 µM)

Question: What about the “activity against Gram-negative microorganisms” value [9] of the same compound?
Answer: particularly active against Gram-negative microorganisms

Question: What about the MIC [10, 15] of the same compound?
Answer: 1.6 µg/mL (≈ 4.61 µM)

Question: And the MIC [10, 16]?
Answer: 1.6 µg/mL (≈ 4.61 µM)

Question: And the MIC [11, 25]?
Answer: 12.5 µg/mL (≈ 36 µM)

Question: What about the MIC [11, 15] of the same compound?
Answer: 3.1 µg/mL (≈ 8.92 µM)

Question: And the MIC [12, 15]?
Answer: 0.4 µg/mL (≈ 1.15 µM)

Question: What about the MIC [12, 16] of the same compound?
Answer: 1.6 µg/mL (≈ 4.61 µM)

Question: And the MIC [13, 21]?
Answer: 50 µg/mL (≈ 144 µM)

Question: And the MIC [13, 22]?
Answer: > 100 µg/mL

Question: And the MIC [14, 23]?
Answer: 12.5 µg/mL (≈ 36 µM)

Question: What about the MIC [14, 24] of the same compound?
Answer: 6.2 µg/mL (≈ 17.8 µM)

Question: How did the MIC [1, 15] turn out when Cn1cc(C(=O)O)c(=O)c2cnc(N3CCN(CCO)CC3)nc21 [Example XI, 2-(4'-β-Hydroxyethyl-piperazino)-5-oxo-8-methyl-5,8-dihydropyrido(2,3-d)pyrimidine-6-carboxylic acid] was run?
Answer: 1.6 µg/mL (≈ 4.8 µM)

Question: What about the MIC [1, 16] of the same compound?
Answer: 25 µg/mL (≈ 75 µM)

Question: And the MIC [2, 26]?
Answer: 12.5 µg/mL (≈ 37.5 µM)

Question: What about the MIC [2, 16] of the same compound?
Answer: 100 µg/mL (≈ 300 µM)

Question: What about the MIC [3, 17] of the same compound?
Answer: 25 µg/mL (≈ 75 µM)

Question: And the MIC [3, 18]?
Answer: > 100 µg/mL

Question: What about the MIC [4, 15] of the same compound?
Answer: 25 µg/mL (≈ 75 µM)

Question: What about the MIC [4, 16] of the same compound?
Answer: > 100 µg/mL

Question: And the MIC [5, 26]?
Answer: 12.5 µg/mL (≈ 37.5 µM)

Question: What about the MIC [5, 16] of the same compound?
Answer: 100 µg/mL (≈ 300 µM)

Question: What about the MIC [6, 19] of the same compound?
Answer: 100 µg/mL (≈ 300 µM)

Question: And the MIC [6, 20]?
Answer: > 100 µg/mL

Question: What about the MIC [7, 15] of the same compound?
Answer: 25 µg/mL (≈ 75 µM)

Question: And the MIC [7, 16]?
Answer: 50 µg/mL (≈ 150 µM)

Question: What about the MIC [8, 15] of the same compound?
Answer: 1.6 µg/mL (≈ 4.8 µM)

Question: And the MIC [8, 16]?
Answer: 12.5 µg/mL (≈ 37.5 µM)

Question: What about the MIC [10, 15] of the same compound?
Answer: 3.1 µg/mL (≈ 9.3 µM)

Question: What about the MIC [10, 16] of the same compound?
Answer: 25 µg/mL (≈ 75 µM)

Question: What about the MIC [11, 15] of the same compound?
Answer: 6.2 µg/mL (≈ 18.6 µM)

Question: What about the MIC [11, 16] of the same compound?
Answer: 25 µg/mL (≈ 75 µM)

Question: What about the MIC [12, 25] of the same compound?
Answer: 12.5 µg/mL (≈ 37.5 µM)

Question: What about the MIC [12, 15] of the same compound?
Answer: 3.1 µg/mL (≈ 9.3 µM)

Question: And the MIC [13, 21]?
Answer: 100 µg/mL (≈ 300 µM)

Question: What about the MIC [13, 22] of the same compound?
Answer: > 100 µg/mL

Question: And the MIC [14, 23]?
Answer: 6.2 µg/mL (≈ 18.6 µM)

Question: And the MIC [14, 24]?
Answer: 50 µg/mL (≈ 150 µM)

Question: What does the source list for CCN1CCN(c2ncc3c(=O)c(C(=O)O)cn(CC)c3n2)CC1 [Example XII, 2-(4'-Ethyl-piperazino)-5-oxo-8-ethyl-5,8-dihydro-pyrido(2,3-d)pyrimidine-6-carboxylic acid]?
Answer: MIC [1, 27]: 0.8 µg/mL (≈ 2.41 µM); MIC [2, 27]: 100 µg/mL (≈ 302 µM); MIC ([3]; 18 h, agar medium, N.A., Table II (Staphylococcus 20 P [sic]), read-out: minimum inhibitory concentration): 1.6 µg/mL (≈ 4.83 µM); MIC [4, 27]: 3.1 µg/mL (≈ 9.35 µM); MIC [5, 27]: 100 µg/mL (≈ 302 µM); MIC ([6]; A22, 18 h, agar medium, N.A., Table II, read-out: minimum inhibitory concentration): 100 µg/mL (≈ 302 µM); MIC [7, 27]: 0.8 µg/mL (≈ 2.41 µM); MIC [8, 27]: 0.8 µg/mL (≈ 2.41 µM); MIC [10, 27]: 0.8 µg/mL (≈ 2.41 µM); MIC [11, 27]: 6.2 µg/mL (≈ 18.7 µM); MIC [12, 27]: 0.4 µg/mL (≈ 1.21 µM); MIC ([14]; read-out: minimum inhibitory concentration): 0.8 µg/mL (≈ 2.41 µM)
